The target of the assay is T1, BRD4 bromo domain 2 [BRD4(2)] (Homo sapiens, UniProt O60885).
T1 construct: N-terminally His6-tagged BRD4(2) (amino acids 357-445); made in house; host or cells: E. coli
As to the kind of experiment: BRD4/acetylated peptide H4 binding assay (TR-FRET), BRD4 bromo domain 2. The note with it: inhibition of BRD4(2)/Ac-H4 peptide interaction. The gist of the method: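 IC50 comes from a 4-parameter fit over 0.1 nM–20 μM in duplicate, normalised to DMSO and no-protein controls. TR-FRET (Eu-streptavidin/anti-His-XL665) tracks His-tagged BRD4(2) 357-445 at 100 nM binding Ac-H4 peptide in HEPES pH 7.5 buffer. Incubation was 1 h at 22 °C, then at 4 °C ≥3 h up to overnight.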

The record followed here is patent US20160176867A1, “MODIFIED BET-PROTEIN-INHIBITING DIHYDROQUINOXALINONES AND DIHYDROPYRIDOPYRAZINONES” (BAYER PHARMA AKTIENGESELLSCHAFT, priority 2013, published 2016).

`C[C@@H]1C(=O)N(C)c2ccc(Nc3cccc(S(=O)(=O)NCCN(C)C)c3)nc2N1C1CCN(C(=O)OC(C)(C)C)CC1` [Example 59, tert-butyl 4-[(3R)-6-[(3-{[2-(dimethylamino)ethyl]-sulphamoyl}phenyl)amino]-1,3-dimethyl-2-oxo-2,3-dihydropyrido[2,3-b]pyrazin-4(1H)-yl]piperidine-1-carboxylate]: the IC50 (usually the concentration that gives 50% inhibition) turned out to be 77 nM.

`C[C@@H]1C(=O)N(C)c2ccc(Nc3cccc(C(=O)N[C@H]4CC[C@H](N5CCN(CC6CC6)CC5)CC4)c3)nc2N1Cc1ccccc1` [Example 72, 3-{[(3R)-4-benzyl-1,3-dimethyl-2-oxo-1,2,3,4-tetrahydropyrido[2,3-b]pyrazin-6-yl]amino}-N-{trans-4-[4-(cyclo-propylmethyl)piperazin-1-yl]cyclohexyl}benzamide] yielded an IC50 of 256 nM.

For `C[C@@H]1C(=O)N(C)c2ccc(Nc3cccc(C(=O)NC4CCN(C)CC4)c3)nc2N1Cc1ccccc1` [Example 73, 3-{[(3R)-4-benzyl-1,3-dimethyl-2-oxo-1,2,3,4-tetrahydropyrido[2,3-b]pyrazin-6-yl]amino}-N-(1-methylpiperidin-4-yl)benzamide], the IC50 came to 86 nM.

As for `C[C@@H]1C(=O)N(C)c2ccc(Nc3cccc(C(=O)NCCN4CCN(C)CC4)c3)nc2N1Cc1ccccc1` [Example 74, 3-{[(3R)-4-benzyl-1,3-dimethyl-2-oxo-1,2,3,4-tetrahydropyrido[2,3-b]pyrazin-6-yl]amino}-N-[2-(4-methylpiperazin-1-yl)ethyl]benzamide], the 50% inhibitory concentration (IC50) is 91 nM.

Molecule `C[C@@H]1C(=O)N(C)c2ccc(Nc3cccc(C(=O)N4CCN(C)CC4)c3)nc2N1Cc1ccccc1` [Example 75] came in with an IC50 of 79 nM.

With `CC(C)N1c2nc(Nc3cccc(C(=O)N4CCN(C)CC4)c3)ccc2N(C)C(=O)[C@H]1C` [Example 77, (3R)-4-isopropl-1,3-dimethyl-6-({3-[(4-methylpiperazin-1-yl)carbonyl]phenyl}-amino)-3,4-dihydro-pyrido[2,3-b]pyrazin-2(1H)-one], the IC50 was 118 nM.

Take `CC(C)N1c2nc(Nc3cccc(C(=O)N[C@H]4CC[C@H](N5CCN(CC6CC6)CC5)CC4)c3)ccc2N(C)C(=O)[C@H]1C` [Example 79, N-{trans-4-[4-(cyclo-propylmethyl)piperazin-1-yl]cyclohexyl}-3-{[(3R)-4-isopropyl-1,3-dimethyl-2-oxo-1,2,3,4-tetrahydropyrido[2,3-b]pyrazin-6-yl]amino}benzamide]: the IC50 came to 116 nM.

The molecule `CC(C)N1c2nc(Nc3cccc(C(=O)N4CCN(CC5CC5)CC4)c3)ccc2N(C)C(=O)[C@H]1C` [Example 88, (3R)-6-[(3-{[4-(cyclo-propylmethyl)piperazin-1-yl]carbonyl}phenyl)amino]-4-isopropyl-1,3-dimethyl-3,4-dihydropyrido[2,3-b]pyrazin-2(1H)-one] returned an IC50 of 177 nM.

As to `C[C@@H]1C(=O)N(C)c2ccc(Nc3cccc(C(=O)N[C@H]4CC[C@H](N5CCN(CC6CC6)CC5)CC4)c3)nc2N1c1ccc(F)cc1` [Example 93], the concentration for half-maximal inhibition (IC50) was determined as 2450 nM.

Regarding `C[C@@H]1C(=O)N(C)c2ccc(Nc3cccc(S(=O)(=O)N4CC5(CCC5)C4)c3)nc2N1C1CCNCC1` [Example 122, (3R)-6-{[3-(2-Azaspiro[3.3]hept-2-ylsulphonyl)phenyl]amino}-1,3-dimethyl-4-(piperidin-4-yl)-3,4-dihydropyrido[2,3-b]pyrazin-2(1H)-one], the IC50 was found to be 94 nM.

The molecule `C[C@@H]1C(=O)N(C)c2ccc(Nc3cccc(S(=O)(=O)N(C)C)c3)nc2N1C1CCNCC1` [Example 123, 3-{[(3R)-1,3-dimethyl-2-oxo-4-(piperidin-4-yl)-1,2,3,4-tetrahydropyrido[2,3-b]pyrazin-6-yl]amino}-N,N-dimethylbenzene-sulphonamide] came in with an IC50 of 62 nM.

As for `C[C@@H]1C(=O)N(C)c2ccc(Nc3cccc(S(=O)(=O)NC4CCN(C)CC4)c3)nc2N1C1CCNCC1` [Example 124, 3-{[(3R)-1,3-dimethyl-2-oxo-4-(piperidin-4-yl)-1,2,3,4-tetrahydropyrido[2,3-b]pyrazin-6-yl]amino}-N-(1-methylpiperidin-4-yl)benzenesulphonamide], the IC50 is 46 nM.

As to `C[C@@H]1C(=O)N(C)c2ccc(Nc3cccc(S(=O)(=O)N4CCN(C)CC4)c3)nc2N1C1CCNCC1` [Example 125, (3R)-1,3-dimethyl-6-({3-[(4-methylpiperazin-1-yl)sulphonyl]phenyl}amino)-4-(piperidin-4-yl)-3,4-dihydropyrido[2,3-b]pyrazin-2(1H)-one], the IC50 amounted to 44 nM.

For the molecule `C[C@@H]1C(=O)N(C)c2ccc(Nc3cccc(S(=O)(=O)N4CCN(CC(F)(F)F)CC4)c3)nc2N1C1CCNCC1` [Example 126, (3R)-1,3-dimethyl-4-(piperidin-4-yl)-6-[(3-{[4-(2,2,2-trifluoroethyl)piperazin-1-yl]sulphonyl}phenyl)amino]-3,4-dihydropyrido[2,3-b]pyrazin-2(1H)-one], the concentration for half-maximal inhibition (IC50) was found to be 86 nM.

Molecule `C[C@@H]1C(=O)N(C)c2ccc(Nc3cccc(S(=O)(=O)N[C@H]4CC[C@H](N5CCN(CC6CC6)CC5)CC4)c3)nc2N1C1CCNCC1` [Example 127, N-{trans-4-[4-(cyclopropylmethyl)piperazin-1-yl]cyclohexyl}-3-{[(3R)-1,3-dimethyl-2-oxo-4-(piperidin-4-yl)-1,2,3,4-tetrahydropyrido[2,3-b]pyrazin-6-yl]amino}-benzenesulphonamide] registered an IC50 of 90 nM.

`C[C@@H]1C(=O)N(C)c2ccc(Nc3cccc(S(=O)(=O)N(C)C)c3)cc2N1C1CCNCC1` [Example 129, 3-{[(3R)-1,3-dimethyl-2-oxo-4-(piperidin-4-yl)-1,2,3,4-tetrahydroquinoxalin-6-yl]amino}-N,N-dimethylbenzenesulphon-amide] gave an IC50 of 97 nM.

Take `C[C@@H]1C(=O)N(C)c2ccc(Nc3cccc(C(=O)N[C@H]4CC[C@H](N5CCN(CC6CC6)CC5)CC4)c3)nc2N1C1CCNCC1` [Example 131, N-{trans-4-[4-(cyclo-propylmethyl)piperazin-1-yl]cyclohexyl}-3-{[(3R)-1,3-dimethyl-2-oxo-4-(piperidin-4-yl)-1,2,3,4-tetrahydropyrido[2,3-b]pyrazin-6-yl]amino}benzamide]: the IC50 was determined as 188 nM.

`C[C@@H]1C(=O)N(C)c2ccc(Nc3cccc(C(=O)N(C)C)c3)cc2N1C1CCNCC1` [Example 133, 3-{[(3R)-1,3-dimethyl-2-oxo-4-(piperidin-4-yl)-1,2,3,4-tetrahydroquinoxalin-6-yl]amino}-N,N-dimethylbenzamide] came in with an IC50 of 990 nM.

Molecule `Cc1nnc(-c2cccc(Nc3ccc4c(n3)N(C3CCOCC3)[C@H](C)C(=O)N4C)c2)o1` [Example 134, (3R)-1,3-Dimethyl-6-{[3-(5-methyl-1,3,4-oxadiazol-2-yl)phenyl]amino}-4-(tetrahydro-2H-pyran-4-yl)-3,4-dihydropyrido[2,3-b]pyrazin-2(1H)-one] displayed an IC50 of 191 nM.
